Data set [1] concerns cancer cell lines. Description: Inhibition of growth of cancer cell lines in vitro (FIGS. 9 and 10). The settings on record: 0.2-33 μM. The data set is classed as cell-based. As for the experimental part:
FIG. 9A-9K show the results of inhibition of growth of cancer cell lines in vitro by FQI1 (Formula (IV)). The effect of inhibition of cell growth (represented as a fraction of 1) of increasing concentrations of FQI1 between 0.2-33 μM is shown.
The effect of inhibition of cell growth (represented as a fraction of 1) of increasing concentrations of FQI2 between 0.2-33 μM is shown.

The subject of data set [2] is primary mouse hepatocytes. Description: Primary mouse hepatocytes, growth and toxicity. The data set is classed as cell-based. An excerpt:
Averages with SEM of three experiments are shown. *P<0.05, by one-tailed t-test. […] The cells were imaged separately for TUNEL-positivity and DNA at the top. Below: Merged images; green for TUNEL (Terminal deoxynucleotidyl transferase dUTP nick end labeling) staining, blue for DAPI (4′,6-diamidino-2-phenylindole) staining. […] Binucleate cells are common for adult hepatocytes.

In data set [3] the test system is QGY-7703 HCC cells. As to the kind of experiment: HCC cell viability (MTT), QGY-7703. The data set is classed as cell-based. The protocol: Cells were plated at 3×10^4 cells/mL, A549 and HeLa, and 1×10^4 cells/mL, NIH/3T3, in 96-well plates and incubated for 24 h to allow for cell adhesion. LSF-library compounds were dissolved in DMSO, serial diluted in appropriate medium and added to cells in triplicate (2 plates). DMSO was added to control wells at a final concentration of 1%. After 72 h incubation in the presence of compound, confluent cells were assayed for growth proliferation with CellTiter 96® AQueous One Solution Cell Proliferation Assay (MTS) (Promega) according to the manufacturer's protocol. Plates were read at 490 nm on a microplate reader, and IC50 values were determined as the percentage of compound-treated cell growth to control cell growth. HCC cells—one hour after plating HCC cells onto 96-well plates, compound or vehicle (DMSO) was added to the desired concentrations, keeping DMSO at 0.5%. At indicated time points, cell viability was assayed using the CellTiter 96® Non-Radioactive Cell Proliferation Assay (MTT) (Promega).

Data set [4] deals with LBP1a/b. Description: Cellular Thermal Shift Assay (CETSA), LBP1a/b. It is filed as binding. Conditions: QGY-7703 lysate, 500 μM. The protocol:
Drug-target engagement was assessed using CETSA as described by Molina et al. (Monitoring Drug-Target Engagement in Cells and Tissues Using Cellular Thermal Shift Assay. Science (2013) 341, 84-87). QGY-7703 cells were cultured at 37° C. in 5% CO2 in DMEM (Dulbecco's modification of Eagle's Medium; Corning) supplemented with 10% Fetal Bovine Serum (FBS; Invitrogen). Cells were seeded into 10 cm plates and allowed to reach 60-80% confluency. After trypsinization (0.05% Trypsin-EDTA, Invitrogen), cell pellet was washed twice with ice-cold 1×PBS (137 mM NaCl, 2.7 mM KCl, 10 mM Na2HPO4, 2 mM KH2PO4, pH 7.2). Cell pellet was lysed by addition of 200 μL freshly prepared ice-cold RIPA buffer (10 mM Tris-Cl pH 8.0, 1 mM EDTA, 0.5 mM EGTA, 1% Triton X-100, 0.1% sodium deoxycholate, 0.1% SDS, 140 mM NaCl) supplemented with 1 mM Pefabloc (Sigma-Aldrich), and flash frozen in liquid nitrogen and thawed for a total of three cycles. Cell lysate was centrifuged at 20,000×g for 20 minutes to clarify. Supernatant was either treated immediately or saved at −80° C. for future use. […]
Immunoblots were quantified using Image J and graphed using GraphPad PRISM. Area-under-the-curve (AUC) for the quantified western blots were calculated with GraphPad PRISM and non-parametric t-test was calculated to determine statistical significance between the curves. […]

Experimental findings from patent US10392398B2, “Inhibitors of Late SV40 Factor (LSF) as cancer chemotherapeutics” (TRUSTEES OF BOSTON UNIVERSITY, priority 2010, dated 2019) are described below.

Consider `CCOc1ccccc1C1CC(=O)Nc2cc3c(cc21)OCO3` (racemic) [FQI1, 8-(2-ethoxyphenyl)-7,8-dihydro-[1,3]dioxolo[4,5-g]quinolin-6(5H)-one], for which the “growth of a variety of cancers, in vitro cell assay” value in data set [1] is listed as “inhibit the growth of a variety of cancers”. For the same molecule, the “growth consequences or toxicity in primary non-dividing mouse hepatocytes” value in data set [2] is recorded as “No growth consequences or toxicity”. The “effect of exogenous thymidine on treated cell viability profiles” value in data set [3] (QGY-7703, 20 μM thymidine) is listed as “not affected”. The “concentration at which decrease in HCC cell viability was observable” value in data set [3] (QGY-7703, between 24 and 48 hours) came out at 2 µM. Further, the “cellular proliferation of QGY-7703 cells (MTT)” value in data set [3] (in words) was “decreased overall cellular proliferation”.

As for `CCOc1cc(N(C)C)ccc1C1CC(=O)Nc2cc3c(cc21)OCO3` (stereo not drawn) [FQI-34, 8-(4-(dimethylamino)-2-ethoxyphenyl)-7,8-dihydro-[1,3]dioxolo[4,5-g]quinolin-6(5H)-one], in data set [4], the “binding to LBP1a/b by CETSA” value is “directly binds”.
